Laboratory results from US9969742B2, “Imidazotriazinone compounds” (Ironwood Pharmaceuticals, Inc., priority 2012, dated 2018).
Where two headings read alike, the source gives them in different places. Values belong to the compound of their own block, whether it stands above or below them.

Key:
Type in all cases: biochemical
[1] = molecular target: T1, PDE1A (Homo sapiens, UniProt P54750); assay: Phosphodiesterase enzyme screening assay, PDE1A
T1 construct: purchased Reaction Biology Corporation, Malvern, Pa
Method in brief: (§1)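 Microfluidic mobility-shift assay; values from quadruplicate wells relative to controls. Conditions: 4.0 μM cGMP, 5 mM MgCl2, pH 7.5 HEPES, 1 h R.T., EDTA stop.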

[2] = molecular target: T2, PDE9A2 (Homo sapiens, UniProt O76083); assay: Phosphodiesterase enzyme screening assay, PDE9A2
T2 construct: purchased Reaction Biology Corporation, Malvern, Pa
Method in brief: as §1

[3] = molecular target: T3, PDE1B (Homo sapiens, UniProt Q01064); assay: Phosphodiesterase enzyme screening assay, PDE1B
T3 construct: purchased Reaction Biology Corporation, Malvern, Pa
Method in brief: as §1

[4] = Table 1, ratio of IC50 values, value greater than 1 indicates greater selectivity for PDE9A2
[5] = Table 1, 10 concentrations, 4.0 μM cGMP substrate, 1 hour at R.T., read-out: Band (PDE9A2 IC50)
[6] = ratio of IC50 values, PDE1A versus PDE9A2, value greater than 1 indicates greater selectivity for PDE9A2
[7] = ratio of IC50 values, PDE1B versus PDE9A2, value greater than 1 indicates greater selectivity for PDE9A2
[8] = ratio of IC50 values PDE1A vs PDE9A2, value greater than 1 indicates greater selectivity for PDE9A2
[9] = IC50 band, 4.0 μM cGMP substrate, 1 hour at R.T.
[10] = ratio of IC50 values PDE1B vs PDE9A2, value greater than 1 indicates greater selectivity for PDE9A2
[11] = ratio of IC50 values PDE1A / PDE9A2, value greater than 1 indicates greater selectivity for PDE9A2
[12] = 4.0 μM cGMP substrate, 1 hour at R.T., read-out: Band (PDE9A2 IC50)
[13] = ratio of IC50 values PDE1B / PDE9A2, value greater than 1 indicates greater selectivity for PDE9A2
[14] = ratio of IC50 values, PDE1A versus PDE9A2, value greater than 1 = greater selectivity for PDE9A2
[15] = Table 3, 4.0 μM cGMP substrate, 1 hour at R.T., read-out: Band (PDE9A2 IC50)
[16] = ratio of IC50 values, PDE1B versus PDE9A2, value greater than 1 = greater selectivity for PDE9A2
[17] = ratio of IC50 values, value greater than 1 indicates greater selectivity for PDE9A2

T2 sequence (O76083 1-533 isoform O76083-2): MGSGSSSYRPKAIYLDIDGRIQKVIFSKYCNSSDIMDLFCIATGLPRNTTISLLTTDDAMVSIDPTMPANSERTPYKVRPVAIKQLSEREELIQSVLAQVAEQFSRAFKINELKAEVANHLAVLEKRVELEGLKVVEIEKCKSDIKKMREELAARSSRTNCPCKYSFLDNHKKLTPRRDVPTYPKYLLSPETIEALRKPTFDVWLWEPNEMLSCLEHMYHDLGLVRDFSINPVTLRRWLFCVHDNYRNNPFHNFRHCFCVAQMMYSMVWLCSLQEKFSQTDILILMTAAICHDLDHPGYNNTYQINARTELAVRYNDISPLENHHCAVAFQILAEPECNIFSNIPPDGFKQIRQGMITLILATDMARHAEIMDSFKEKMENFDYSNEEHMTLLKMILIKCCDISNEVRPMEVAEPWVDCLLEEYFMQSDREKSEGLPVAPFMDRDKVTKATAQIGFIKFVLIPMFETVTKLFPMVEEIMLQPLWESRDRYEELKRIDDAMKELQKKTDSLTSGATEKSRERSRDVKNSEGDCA
T1 sequence (P54750 whole entry): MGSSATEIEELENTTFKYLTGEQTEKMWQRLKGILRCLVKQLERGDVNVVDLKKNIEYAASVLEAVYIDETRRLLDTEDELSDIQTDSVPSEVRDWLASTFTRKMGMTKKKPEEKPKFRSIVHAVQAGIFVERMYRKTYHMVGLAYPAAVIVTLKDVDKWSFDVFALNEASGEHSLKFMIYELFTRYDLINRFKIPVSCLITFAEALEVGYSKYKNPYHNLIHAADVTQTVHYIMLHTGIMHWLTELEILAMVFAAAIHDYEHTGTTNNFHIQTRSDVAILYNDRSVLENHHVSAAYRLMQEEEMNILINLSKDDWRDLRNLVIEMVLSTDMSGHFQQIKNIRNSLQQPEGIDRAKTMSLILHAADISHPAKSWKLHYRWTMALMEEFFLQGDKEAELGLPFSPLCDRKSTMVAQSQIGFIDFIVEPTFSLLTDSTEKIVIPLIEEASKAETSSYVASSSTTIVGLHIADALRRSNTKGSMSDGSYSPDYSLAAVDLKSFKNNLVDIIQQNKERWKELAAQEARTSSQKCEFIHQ
T3 sequence (Q01064 whole entry): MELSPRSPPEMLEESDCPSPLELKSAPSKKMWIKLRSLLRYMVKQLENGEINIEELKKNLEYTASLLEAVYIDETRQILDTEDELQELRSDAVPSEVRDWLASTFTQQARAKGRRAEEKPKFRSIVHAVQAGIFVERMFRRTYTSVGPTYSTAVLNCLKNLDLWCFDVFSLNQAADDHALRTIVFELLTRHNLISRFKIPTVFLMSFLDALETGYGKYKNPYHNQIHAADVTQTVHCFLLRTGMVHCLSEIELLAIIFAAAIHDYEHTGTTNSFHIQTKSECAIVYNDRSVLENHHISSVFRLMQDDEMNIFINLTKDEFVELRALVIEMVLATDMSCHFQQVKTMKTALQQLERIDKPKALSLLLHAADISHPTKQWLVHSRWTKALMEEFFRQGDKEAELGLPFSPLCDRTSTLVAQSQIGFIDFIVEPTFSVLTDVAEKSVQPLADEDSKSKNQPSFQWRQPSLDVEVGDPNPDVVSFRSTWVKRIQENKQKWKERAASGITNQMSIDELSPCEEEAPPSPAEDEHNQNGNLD

PDE1A selectivity (versus PDE9A2) [1, 8]: 167 | IC50 [2, 9]: < 1000 nM | PDE1B selectivity (versus PDE9A2) [3, 10]: 362
Structure (SMILES): CC1CN(Cc2ccccn2)CC1c1nn2c(C3CCC(F)(F)CC3)ncc2c(=O)[nH]1 (single isomer, unassigned; (+)) [(+)-7-(4,4-difluorocyclohexyl)-2-((3,4-trans)-4-methyl-1-(pyridin-2-ylmethyl)pyrrolidin-3-yl)imidazo[5,1-f][1,2,4]triazin-4(3H)-one]

PDE1A selectivity (versus PDE9A2) [1, 11]: 19 | IC50 [2, 12]: < 1000 nM | PDE1B selectivity (versus PDE9A2) [3, 13]: 39
Structure (SMILES): CC1CN(Cc2ncccn2)CC1c1nn2c(-c3ccccc3F)ncc2c(=O)[nH]1 (single isomer, unassigned; (+)) [(+)-7-(2-fluorophenyl)-2-((3,4-trans)-4-methyl-1-(pyrimidin-2-ylmethyl)pyrrolidin-3-yl)imidazo[5,1-f][1,2,4]triazin-4(3H)-one]

PDE1A selectivity (versus PDE9A2) [1, 14]: 247 | IC50 [2, 15]: < 1000 nM | PDE1B selectivity (versus PDE9A2) [3, 16]: 434
Structure (SMILES): CC1CN(Cc2cnn(C)c2)CC1c1nn2c(C3CCOCC3)ncc2c(=O)[nH]1 (single isomer, unassigned; (+)) [(+)-2-((3,4-trans)-4-methyl-1-((1-methyl-1H-pyrazol-4-yl)methyl)pyrrolidin-3-yl)-7-(tetrahydro-2H-pyran-4-yl)imidazo[5,1-f][1,2,4]triazin-4(3H)-one]

PDE1A selectivity (versus PDE9A2) [1, 17]: 208 | IC50 ([2]; read-out: Band (PDE9A2 IC50)): < 1000 nM | PDE1B selectivity (versus PDE9A2) [3, 17]: 266
Structure (SMILES): CC1CN(Cc2ncn(C)n2)CC1c1nn2c(C3CCOCC3)ncc2c(=O)[nH]1 (single isomer, unassigned; (+)) [(+)-2-((3,4-trans)-4-methyl-1-((1-methyl-1H-1,2,4-triazol-3-yl)methyl)pyrrolidin-3-yl)-7-(tetrahydro-2H-pyran-4-yl)imidazo[5,1-f][1,2,4]triazin-4(3H)-one]

PDE1A selectivity (versus PDE9A2) [1, 8]: 1437 | IC50 [2, 9]: < 1000 nM | PDE1B selectivity (versus PDE9A2) [3, 10]: 1427
Structure (SMILES): Cc1ccc(F)cc1-c1ncc2c(=O)[nH]c(C3CN(Cc4cn5ccccc5n4)CC3C)nn12 (single isomer, unassigned; (+)) [(+)-7-(5-fluoro-2-methylphenyl)-2-((3,4-trans)-1-(imidazo[1,2-a]pyridin-2-ylmethyl)-4-methylpyrrolidin-3-yl)imidazo[5,1-f][1,2,4]triazin-4(3H)-one]

PDE1A selectivity (versus PDE9A2) [1, 14]: 628 | IC50 [2, 15]: < 1000 nM | PDE1B selectivity (versus PDE9A2) [3, 16]: 721
Structure (SMILES): CC1CN(Cc2ccn(C)n2)CC1c1nn2c(C3CCOCC3)ncc2c(=O)[nH]1 (single isomer, unassigned; (+)) [(+)-2-((3,4-trans)-4-methyl-1-((1-methyl-1H-pyrazol-3-yl)methyl)pyrrolidin-3-yl)-7-(tetrahydro-2H-pyran-4-yl)imidazo[5,1-f][1,2,4]triazin-4(3H)-one]

PDE1A selectivity (versus PDE9A2) [1, 8]: 405 | IC50 [2, 9]: < 1000 nM | PDE1B selectivity (versus PDE9A2) [3, 10]: 1659
Structure (SMILES): CC1CN(Cc2cn3ccccc3n2)CC1c1nn2c(C3CCC(F)(F)CC3)ncc2c(=O)[nH]1 (single isomer, unassigned; (+)) [(+)-7-(4,4-difluorocyclohexyl)-2-((3,4-trans)-1-(imidazo[1,2-a]pyridin-2-ylmethyl)-4-methylpyrrolidin-3-yl)imidazo[5,1-f][1,2,4]triazin-4(3H)-one]

PDE1A selectivity (versus PDE9A2) [1, 14]: 258 | IC50 [2, 15]: < 1000 nM | PDE1B selectivity (versus PDE9A2) [3, 16]: 560
Structure (SMILES): CC1CN(Cc2ccc(C(F)(F)F)cn2)CC1c1nn2c(C3CCOCC3)ncc2c(=O)[nH]1 (single isomer, unassigned; (+)) [(+)-2-((3,4-trans)-4-methyl-1-((5-(trifluoromethyl)pyridin-2-yl)methyl)pyrrolidin-3-yl)-7-(tetrahydro-2H-pyran-4-yl)imidazo[5,1-f][1,2,4]triazin-4(3H)-one]

Continued, compound first:

Structure (SMILES): CC1CN(Cc2cccc(Cl)c2)CC1c1nn2c(C3CCOCC3)ncc2c(=O)[nH]1 (single isomer, unassigned; (+)) [(+)-2-((3,4-trans)-1-(3-chlorobenzyl)-4-methylpyrrolidin-3-yl)-7-(tetrahydro-2H-pyran-4-yl)imidazo[5,1-f][1,2,4]triazin-4(3H)-one]
PDE1A selectivity (versus PDE9A2) [1, 4]: 470 | IC50 [2, 5]: < 1000 nM | PDE1B selectivity (versus PDE9A2) [3, 4]: 331

Structure (SMILES): Cc1cc(F)c(F)cc1-c1ncc2c(=O)[nH]c(C3CN(Cc4ccccc4)CC3C)nn12 (single isomer, unassigned; (+)) [(+)-2-((3,4-trans)-1-benzyl-4-methylpyrrolidin-3-yl)-7-(4,5-difluoro-2-methylphenyl)imidazo[5,1-f][1,2,4]triazin-4(3H)-one]
PDE1A selectivity (versus PDE9A2) [1, 6]: 174 | IC50 ([2]; read-out: Band (PDE9A2 IC50)): < 1000 nM | PDE1B selectivity (versus PDE9A2) [3, 7]: 143

Structure (SMILES): Cc1ccccc1-c1ncc2c(=O)[nH]c(C3CN(Cc4cn5ccccc5n4)CC3C)nn12 (single isomer, unassigned; (+)) [(+)-2-((3,4-trans)-1-(imidazo[1,2-a]pyridin-2-ylmethyl)-4-methylpyrrolidin-3-yl)-7-(o-tolyl)imidazo[5,1-f][1,2,4]triazin-4(3H)-one]
PDE1A selectivity (versus PDE9A2) [1, 6]: 326 | IC50 ([2]; read-out: Band (PDE9A2 IC50)): < 1000 nM | PDE1B selectivity (versus PDE9A2) [3, 7]: 661

Structure (SMILES): Cc1cc(F)ccc1-c1ncc2c(=O)[nH]c(C3CN(Cc4ccc(Cl)cc4)CC3C)nn12 (single isomer, unassigned; (+)) [(+)-2-((3,4-trans)-1-(4-chlorobenzyl)-4-methylpyrrolidin-3-yl)-7-(4-fluoro-2-methylphenyl)imidazo[5,1-f][1,2,4]triazin-4(3H)-one]
PDE1A selectivity (versus PDE9A2) [1, 8]: 468 | IC50 [2, 9]: < 1000 nM | PDE1B selectivity (versus PDE9A2) [3, 10]: 1106

Structure (SMILES): CC1CN(Cc2ccc(F)cc2)CC1c1nn2c(-c3cccc(F)c3)ncc2c(=O)[nH]1 (single isomer, unassigned; (+)) [(+)-2-((3,4-trans)-1-(4-fluorobenzyl)-4-methylpyrrolidin-3-yl)-7-(3-fluorophenyl)imidazo[5,1-f][1,2,4]triazin-4(3H)-one]
PDE1A selectivity (versus PDE9A2) [1, 6]: 42 | IC50 ([2]; read-out: Band (PDE9A2 IC50)): < 1000 nM | PDE1B selectivity (versus PDE9A2) [3, 7]: 57

Structure (SMILES): CC1CN(Cc2nc3ccccn3n2)CC1c1nn2c(C3CCC(F)(F)CC3)ncc2c(=O)[nH]1 (single isomer, unassigned; (+)) [(+)-2-((3,4-trans)-1-([1,2,4]triazolo[1,5-a]pyridin-2-ylmethyl)-4-methylpyrrolidin-3-yl)-7-(4,4-difluorocyclohexyl)imidazo[5,1-f][1,2,4]triazin-4(3H)-one]
PDE1A selectivity (versus PDE9A2) [1, 4]: 597 | IC50 [2, 5]: < 1000 nM | PDE1B selectivity (versus PDE9A2) [3, 4]: 1847

Structure (SMILES): CC1CN(Cc2ccccc2)CC1c1nn2c(-c3ccccc3F)ncc2c(=O)[nH]1 (single isomer, unassigned; (+)) [(+)-2-((3,4-trans)-1-benzyl-4-methylpyrrolidin-3-yl)-7-(2-fluorophenyl)imidazo[5,1-f][1,2,4]triazin-4(3H)-one]
PDE1A selectivity (versus PDE9A2) [1, 11]: 76 | IC50 [2, 12]: < 1000 nM | PDE1B selectivity (versus PDE9A2) [3, 13]: 83

Structure (SMILES): CC1CN(Cc2cc(Cl)cc(Cl)c2)CC1c1nn2c(C3CCOCC3)ncc2c(=O)[nH]1 (single isomer, unassigned; (+)) [(+)-2-((3,4-trans)-1-(3,5-dichlorobenzyl)-4-methylpyrrolidin-3-yl)-7-(tetrahydro-2H-pyran-4-yl)imidazo[5,1-f][1,2,4]triazin-4(3H)-one]
PDE1A selectivity (versus PDE9A2) [1, 4]: 93 | IC50 [2, 5]: < 1000 nM | PDE1B selectivity (versus PDE9A2) [3, 4]: 92

Structure (SMILES): CCC(CC)c1ncc2c(=O)[nH]c(C3CN(Cc4cn5ccccc5n4)CC3C)nn12 (single isomer, unassigned; (+)) [(+)-2-((3,4-trans)-1-(imidazo[1,2-a]pyridin-2-ylmethyl)-4-methylpyrrolidin-3-yl)-7-(pentan-3-yl)imidazo[5,1-f][1,2,4]triazin-4(3H)-one]
PDE1A selectivity (versus PDE9A2) [1, 11]: 51 | IC50 [2, 12]: < 1000 nM | PDE1B selectivity (versus PDE9A2) [3, 13]: 48

Structure (SMILES): COc1ncc(CN2CC(C)C(c3nn4c(C5CCOCC5)ncc4c(=O)[nH]3)C2)cn1 (single isomer, unassigned; (+)) [(+)-2-((3,4-trans)-1-((2-methoxypyrimidin-5-yl)methyl)-4-methylpyrrolidin-3-yl)-7-(tetrahydro-2H-pyran-4-yl)imidazo[5,1-f][1,2,4]triazin-4(3H)-one]
PDE1A selectivity (versus PDE9A2) ([1]; ratio of IC50 values PDE1A / PDE9A2, value greater than 1 = greater selectivity for PDE9A2): 1210 | IC50 [2, 12]: < 1000 nM | PDE1B selectivity (versus PDE9A2) ([3]; ratio of IC50 values PDE1B / PDE9A2, value greater than 1 = greater selectivity for PDE9A2): 3650
